“Also recorded” adds a separate entry of the source. *: point of attachment. X1 = CC[N+]1=C(/C=C/C=C/C=C2N(CCCCCC(=O)NCCN3C(=O)CC(*)C3=O)c3ccc(S(=O)(=O)O)cc3C2(C)C)C(C)(C)c2cc(S(=O)(=O)[O-])ccc21

In series [1] the target is trypsin (Sus scrofa, UniProt P00761). The conditions noted are these: trypsin digestion, 37°C, pH8, followed up to 24 h. The procedure:
Trypsin proteolysis. MUB40 (SEQ ID NO: 3)-Cy5 and RI-MUB40 (SEQ ID NO: 2)-Cy5 were dissolved in 50 mM ammonium bicarbonate, pH 8. Prior to digestion and owing to the propensity of maleimide derivatives to undergo ring-opening in a basic environment (Fontaine et al., 2015), we incubated both peptides at 37° C. overnight. Ring-opening completion was checked before trypsin addition. […] Lyophilized trypsin (Thermo scientific) was reconstituted using 50 mM acetic acid, diluted with 50 mM ammonium bicarbonate and added to the peptide solution so as to obtain a final peptide concentration of 0.25 mg/mL and a protease to protein ratio of 1:20 (w/w). Samples were directly incubated on the injection sampler thermostated at 37° c. HPLC and LC-MS analyses were performed as previously described above, applying a 15% to 40% linear gradient of acetonitrile in 10 mM ammonium acetate over 20 minutes.
Hydrolysis experiments were done in solution at 37° c., pH8 and monitored by HPLC by measuring the peak area of the remaining intact peptides.

In series [2] the test system is human colonic mucus. Kind of series: Fluorescent labelling of human colonic mucus layer. The format is binding. To be noted: 1 μg/mL; listed as MUB40#1-Cy5. How it is done: (§1) Colon explant surgical collection. In summary, human colon segments (ascending, descending, and sigmoid colon) were obtained from fully informed patients undergoing surgery for colon carcinoma and were analyzed anonymously. Patient written consent was obtained, according to the French bioethics law. None of the patients had undergone radiotherapy or chemotherapy. According to the pathologist's examination rules for the longitudinally bisected colon, a healthy segment of tissue, which was distant from the tumor region and devoid of metastatic cells, was removed. Tissues were processed according to the French Government guidelines for research on human tissues and the French Bioethics Act with the authorization no RBM 2009-50.
Fixation and staining procedures. For microscopy studies, purified or cultured cells and polymerized lactoferrin were resuspended onto 24-well plates containing 12 mm coverslips in RMPI 1640+10 mM Hepes (when cultured in the autologous plasma) and centrifuged at 300×g for 10 min. Culture media were removed and cells were fixed in 4% Paraformaldehyde (PFA) for two hours. Fixed cells were washed three times in PBS+0.1% saponin (Sigma-Aldrich), prior immunolabeling with primary antibodies in the same buffer for 1 hour (Triton 0.1% can alternatively be used for cell permeabilization). After three additional washes in PBS+0.1% saponin, secondary antibodies and fluorescent markers were incubated for one hour. […]
(§2) Antibodies, fluorescent markers. For immunofluorescence assay, lactoferrin was detected with a mouse anti-lactoferrin primary monoclonal antibody (Hycult biotech, clone 265-1K1, 1:50 dilution) and an anti-mouse-FITC conjugated secondary antibody (1:1000). Nuclei were detected with DAPI (Life Technologies), Lyophilized MUB40 peptides (MUB40#1 (SEQ ID NO: 3)-Cy5, MUB40#2 (SEQ ID NO: 4)-Cy5, MUB40#3 (SEQ ID NO: 5)-Cy5, MUB40#4 (SEQ ID NO: 6)-Cy5, MUB40#1 (SEQ ID NO: 3)-Dylight, RI-MUB40 (SEQ ID NO: 2)-Cy5, and RI-MUB40 (SEQ ID NO: 2)-Biotin) were solubilized in a phosphate buffer pH8 at a 1 mg/mL concentration and used at a 1:1000 dilution. […]

Series [3] concerns Colonic goblet cell granules. Nature of the series: Fluorescent labelling of colonic goblet cell granules on fixed slides. Type of series: cell-based, human. To be noted: 1 μg/mL. How it is done: as §1, §2
The subject of series [4] is human neutrophil granules. Kind of series: Fluorescent labelling of fixed purified human neutrophils. Type of series: cell-based. The conditions noted are these: 1 μg/mL. The procedure: Fixation and staining procedures. For microscopy studies, purified or cultured cells and polymerized lactoferrin were resuspended onto 24-well plates containing 12 mm coverslips in RMPI 1640+10 mM Hepes (when cultured in the autologous plasma) and centrifuged at 300×g for 10 min. Culture media were removed and cells were fixed in 4% Paraformaldehyde (PFA) for two hours. Fixed cells were washed three times in PBS+0.1% saponin (Sigma-Aldrich), prior immunolabeling with primary antibodies in the same buffer for 1 hour (Triton 0.1% can alternatively be used for cell permeabilization). After three additional washes in PBS+0.1% saponin, secondary antibodies and fluorescent markers were incubated for one hour. Coverslips were washed three time in PBS+0.1% saponin, three times in PBS, and three times in deionized H2O and mounted with prolong gold^tm mounting media.
(§3) Antibodies, fluorescent markers. For immunofluorescence assay, lactoferrin was detected with a mouse anti-lactoferrin primary monoclonal antibody (Hycult biotech, clone 265-1K1, 1:50 dilution) and an anti-mouse-FITC conjugated secondary antibody (1:1000). Nuclei were detected with DAPI (Life Technologies), Lyophilized MUB40 peptides (MUB40#1 (SEQ ID NO: 3)-Cy5, MUB40#2 (SEQ ID NO: 4)-Cy5, MUB40#3 (SEQ ID NO: 5)-Cy5, MUB40#4 (SEQ ID NO: 6)-Cy5, MUB40#1 (SEQ ID NO: 3)-Dylight, RI-MUB40 (SEQ ID NO: 2)-Cy5, and RI-MUB40 (SEQ ID NO: 2)-Biotin) were solubilized in a phosphate buffer pH8 at a 1 mg/mL concentration and used at a 1:1000 dilution. For PBMC staining CD19-APC (B lymphocytes), CD3-APC (T lymphocytes), and CD14-PercP (monocytes, macrophages) (BD Bioscience) were used at a 1:1000 dilution together with Dapi (1:1000) and MUB40-Cy5 (1 mg/mL). Actin was stained with Phalloidin-Rhodamine red X (RRX) (Jackson Immunoresearch Antibodies) used at a 1:1000 final dilution.
(§4) Polymorphonuclear neutrophils purification. Human polymorphonuclear neutrophils were purified as described previously (Monceaux et al. 2016). Briefly, plasma was removed by centrifugation (450×g, 15 min); blood cells were resuspended in 0.9% NaCl solution supplemented with 0.72% Dextran. After red blood cells sedimentation, white blood cells were pelleted and further separated on a two layer Percoll (GE Healthcare) (51%−42%) by centrifugation (at 240×g, 20 min). PBMC (top layer) were isolated from polymorphonuclear neutrophils (bottom layer). Red blood cells were removed from the latter fraction using CD235a (glycophorin) microbeads (negative selection) (Miltenyi Biotec). PBMCs and polymorphonuclear neutrophils were resuspended in the autologous plasma. Guinea pig and mouse polymorphonuclear neutrophils were purified with the same procedure.
Confocal microscopy. […]

For series [5], the system named is Peripheral blood mononuclear cells (PBMC). Kind of series: Fluorescent labelling of PBMC. Type of series: cell-based, human. To be noted: PBMC fixed in PFA 3%.
Source text: as §3
Polymorphonuclear neutrophils purification. Human polymorphonuclear neutrophils were purified as described previously (Monceaux et al. 2016). Briefly, plasma was removed by centrifugation (450×g, 15 min); blood cells were resuspended in 0.9% NaCl solution supplemented with 0.72% Dextran. […]

Series [6] has as its system mouse circulating neutrophils. Nature of the series: Labelling of fixed mouse neutrophils. The format is cell-based. How it is done:
as §4

Series [7] deals with neutrophils recruited to mouse colon infected with Shigella sonnei. Kind of series: Mouse model of shigellosis, staining of fixed colon sections. The conditions noted are these: 1 μg/ml. The procedure: Mouse. The experimental protocol was approved by the french Ethic Committee Paris (number 20150042). Female 6 week-old BALB/cJRi mice from Charles River were orally gavaged with streptomycin (100 μL of 200 mg/ml solution) 24 hours prior to Shigella sonnei infection. Mice were orally gavaged with 10^10 CFUs S. sonnei carrying pMW211 expressing DsRed and monitored for 24 hours. At the end of the experiment, animals were sacrificed and tissue sections from the colon were extracted. Colon sections were placed in 4% paraformaldehyde (PFA) solution for 2 hours. PFA fixed tissue sections were passaged for 16 hours in 16% sucrose followed by 4 hours in 30% sucrose solutions. Fixed colon slices were embedded in OCT (VWR 361603E) and flash frozen in dry ice chilled 2-methylbutane. Frozen blocks were stored at −80 until sectioning. […] Tissue slices were prepared for fluorescence microscopy by incubation in 0.1% saponin for 1 hour followed by incubation with fluorescent markers specific for actin (phalloidin-FITC, Life Technology) and MUB40-Cy5 at a final 1 μg/ml concentration. […]
Spinning disk microscope. Mouse colons infected with S. sonnei pDsRed were imaged on a Bruker Opterra fluorescence microscope using a Zeiss Plan-Apochromat 63×/1.40 oil immersion lense and Prairie View software version 5.3. […]

Chain of trypsin (P00761 9-231): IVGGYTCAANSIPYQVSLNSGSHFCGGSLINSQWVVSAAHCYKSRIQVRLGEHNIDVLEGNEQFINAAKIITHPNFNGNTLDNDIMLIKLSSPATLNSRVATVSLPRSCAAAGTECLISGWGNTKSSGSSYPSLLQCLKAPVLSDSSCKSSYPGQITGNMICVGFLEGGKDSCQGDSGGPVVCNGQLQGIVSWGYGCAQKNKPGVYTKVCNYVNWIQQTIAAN

Consider “Ac-C(X1)TAEGIKKFEGDGYELFKDNFPAGEKFDNDDTNDQFYTVIF-NH2 [Cy5-MUB40#1]”, for which, in series [1], the “degradation by trypsin (in words)” value is listed as “almost completely degraded within 3 h”. The “labelling of / binding to human colonic mucus” value in series [2] was “labelled; also recorded: conserved the ability to bind to and fluorescently label the human colonic mucus”. Moreover, the “labelling of colonic goblet cell granules” value in series [3] is given as “labelled”. Further, the “labelling of human neutrophil granules” value in series [4] (listed as MUB40#1-Cy5) is given as “granular staining”; in series [4] (listed as MUB40-Cy5), “specifically labeled”. Also, in series [5], the “staining of CD3+, CD14+ and CD19+ cells” value was “not stained”. In addition, the labelling of neutrophils result in series [6] is on record as “efficiently labeled”. In addition, the “labelling of recruited neutrophils” value in series [7] is recorded as “specifically labeled”.
